Source: patent US11242537B2, “Method for improving sensitivity of plant to gibberellin inhibitor and use thereof” (CHINA AGRICULTURAL UNIVERSITY, priority 2017, dated 2022)

Columns and labels:
[1] = test system: ga1-1; assay: Effect of DPC on plant height (step 4.1), mutant ga1-1; format: in vivo, Arabidopsis thaliana; conditions: for Plant height: 12 days; for Plant height reduction rate: relative to 0 mg/L
Experimental: In the following examples, the growth conditions of Arabidopsis thaliana are: culturing in a growth chamber with a photoperiod of 16 h light/8 h dark, a light intensity of 60 μmol/m^2/s, a humidity of 60%-70%, and a temperature of 22° C.
The experiment was repeated three times, and the specific steps of each repeated experiment were as follows:
When the ga1-1 was cultured to the 33rd day of sowing (the day of sowing was recorded as the first day of sowing), 30 plants were taken and randomly divided into three groups, ten plants in each group and the plants of these three groups were treated as follows, respectively: one group was sprayed with 0 mg/L DPC solution and cultured for 12 days to obtain untreated ga1-1; one group was sprayed with 30 mg/L aqueous DPC solution and cultured for 12 days to obtain 30 mg/L DPC-treated ga1-1; the last group was sprayed with 500 mg/L DPC solution and cultured for 12 days to obtain 500 mg/L DPC-treated ga1-1.
The plant heights of the above Arabidopsis thaliana before the treatment (FIG. 1) and after different treatments (FIG. 2 and Table 2) were measured.

[2] = test system: transgenic zmcps-ko line with the HRP, line No. 443; assay: Sensitivity of transgenic zmcps-ko line with the HRP to DPC, line No. 443; format: in vivo, maize
Excerpt: The GV3101-pSuper1300-HRP of Example 1 was transformed into the ZmCPSKO maize embryos of step 1.1 by using the Agrobacterium to infect the maize immature embryos, and positive transgenic maize with the HRP was obtained by screening, and the transgenic maize with the HRP contained the target gene HRP. The GV3101-pSuper1300-ZmCPS and GV3101-pSuper1300 were used as controls, and the ZmCPS control maize and empty vector control maize were obtained, respectively.
The WT and transgenic plants were sprayed with DPC during jointing stage to test their DPC sensitivity: the whole plant was sprayed with 500 ppm […] DPC when the maize was grown to 7 leaf expansion phase and 12 leaf expansion phase. Plant height and ear height were measured 2 weeks after treatment and after tasseling.

[3] = line No. 443, 500 ppm (5 mM) DPC spray

For `C[N+]1(C)CCCCC1.[Cl-]` [DPC, 1,1-dimethylpiperidinium chloride], which Plant height ([1]; 30 mg/L DPC spray) is on record?
The Plant height was 4.13 ± 0.25 cm.

And the “Plant height reduction rate” value ([1]; 30 mg/L DPC)?
Its value is 13.60%.

And the Plant height ([1]; 500 mg/L DPC spray)?
The Plant height was 3.95 ± 0.10 cm.

And the “Plant height reduction rate” value ([1]; 500 mg/L DPC)?
Its value is 17.36%.

What about the “Sensitivity of the plant to DPC (in words)” value ([2]; complementary plant, line No. 443 (FIG. 5), 500 ppm (5 mM) DPC spray) of the same compound?
Its value is “sensitive”.

What about the Ear height [2, 3] of the same compound?
Its Ear height is 80.0.

What about the “Plant height at tasseling stage” value [2, 3] of the same compound?
The value was 187.9.

And the “Plant height at 2 weeks after treatment” value ([2]; line No. 443, whole plant sprayed with 500 ppm (5 mM) DPC at 7 and 12 leaf expansion phase)?
The value was 128.9.
